Source: EP0802181B1, “Retinoids” (F. HOFFMANN-LA ROCHE AG, priority 1996, dated 1997)
pIC50: −log10 of the molar value. Where two headings read alike, the source gives them in different places.

Assays:
[1] = tested on: limb bud cell culture; test: limb bud cell culture assay (evaluation of teratogenic potential); assay type: cell-based
Description: Teratogene Effekte gehören zu den schwerschwiegensten Nebenwirkungen aller Retinoide.

[2] = tested on: Sebumdrüsen; test: Minipig model (in vivo), histology of skin biopsies
Description: Die Wirksamkeit der erfindungsgemässen Verbindungen bei der Behandlung der Akne kann mit den nachstehend beschriebenen Versuchsanordnungen gezeigt werden: • 1. Hemmung der Proliferation menschlicher Sebocyten (in vitro) Literatur: Methods in Enzymology 190, 334 (1990), T. Doran and S. Shapiro • 2. Aenderung der Differenzierung von Schweinesebocyten (invitro), Induktion von Keratin 7. Kulturen von Schweinesebocyten werden aus isolierten Sebumdrüsen erwachsener Minischweine hergestellt. Sie reagieren auf die Behandlung mit Retinoiden mit der Expression von Keratin 7, was auch der in vivo Situation entspricht. Keratin 7 wird als ein Marker für eine modifizierte Differenzierung der Sebocyten angesehen. Der entstehende Phenotyp kann kein Sebum mehr produzieren. Die Messung der Keratin 7-Induktion basiert auf einem ELISA assay unter Verwendung eines Maus-monoklonalen Antikeratin 7-Antikörpers. • 3. Minipig-Modell (in vivo) Die Haut der Minischweine hat eine ähnliche anatomische Struktur wie menschliche Haut. Im besonderen ähneln die Sebumdrüsen denen menschlicher Aknepatienten. Unter Retinoid-Behandlung zeigen sie die gleichen histologischen Veränderungen wie beim Menschen. Die Schweine erhalten täglich eine orale Dosis der Versuchssubstanz während 8 Wochen. Alle 2 Wochen wird eine Biopsie genommen und histologisch untersucht.

[3] = limb bud cell culture assay, IC50 correlates with in vivo teratogenicity, read-out: IC50

| SMILES | pIC50 [1, 3] | pIC50 [1] | also measured |
| --- | --- | --- | --- |
| CC1=C(/C=C/C(C)=C/C=C/C(C)=C\C(=O)O)C(C)(C)C[C@H](O)C1 [Beispiel 1, (2Z,4E,6E,8E)-(R)-9-(4-Hydroxy-2,6,6-trimethyl-cyclohex-1-enyl)-3,7-dimethyl-nona-2,4,6,8-tetraensäure] | < 6.00 | – | Verkleinerung der Sebumdrüsen ([2]; daily oral dose 10 mg/kg, after 3-4 weeks): deutliche Verkleinerung der Sebumdrüsen; Sebumdrüsen nach 8 Wochen ([2]; daily oral dose 10 mg/kg, after 8 weeks): weitgehend verschwunden; Nebenwirkungen auf Haut und Schleimhäute ([2]; oral dose 50 mg/kg, in contrast to Isotretinoin): keinerlei Nebenwirkungen auf Haut und Schleimhäute |
| CC1=C(C#C/C(C)=C/C=C/C(C)=C\C(=O)O)C(C)(C)C[C@H](O)C1 [Beispiel 3, (2Z,4E,6E)-(R)-9-(4-Hydroxy-2,6,6-trimethyl-cyclohex-1-enyl)-3,7-dimethyl-nona-2,4,6-trien-8-yn-säure] | < 6.00 | – | – |
| CC1=C(/C=C/C(C)=C/C=C/C(C)=C\C(=O)O)C(C)(C)C(=O)C=C1 [Beispiel 4, (2Z,4E,6E,8E)-9-(5-Oxo-2,6,6-trimethyl-cyclohexa-1,3-dienyl)-3,7-dimethyl-nona-2,4,6,8-tetraensäure] | < 6.00 | – | – |
| CC1=C(/C=C/C(C)=C/C=C/C(C)=C\C(=O)O)C(C)(C)CCC1 [Isotretinoin, reference compound] | – | 6.70 | – |
| CC1=C(/C=C/C(C)=C/C=C/C(C)=C/C(=O)O)C(C)(C)CCC1 [Tretinoin, reference compound] | – | 7.10 | – |
